Tests used:
cholesterol oxidase [1] = experiment: Substrate specificity: hydrogen peroxide decomposed with peroxidase, chromogen colour; type: biochemical, Basidiomycetes; details: hydrogen peroxide liberated from dehydrogenation of the 3β-position
cholesterol oxidase [2] = experiment: Effect of inhibitors etc. on activity of the present enzymes; type: biochemical, Basidiomycetes
Experimental: The enzymatic activity is determined by measurement of the hydrogen peroxide produced by the reaction of the enzyme solution on the substrate cholesterol. The method is based on the sequence of reactions as follows: Thus cholesterol is oxidized by cholesterol oxidase to cholest-5-en-3-one with the evolution of hydrogen peroxide, which couples with 4-aminoantipyrine and phenol in the presence of peroxidase to yield a quinoneimine dye with maximum absorption at 500 nm. To conduct this reaction there is used a reaction mixture, in a final volume of 3.0 ml, composed of 0.1 ml of the enzyme solution, 2 μmoles of cholesterol in 0.1 ml of ethanol, 250 μmoles of phosphate buffer, pH 7.0, 2.46 μmoles of 4-aminoantipyrine, 42 μmoles of phenol, and 24 units of peroxidase obtained from horseradish. The reaction is carried out at 37° C. for 10 minutes with shaking. One unit of cholesterol oxidase activity was defined as the amount of the enzyme which catalyzes the oxidation of 1 μmole of cholesterol per minute at 37° C.

Compound: CC(C)CCC[C@@H](C)[C@H]1CC[C@H]2[C@@H]3CC=C4C[C@@H](O)CC[C@]4(C)[C@H]3CC[C@]12C [cholesterol]
- enzyme acts on the sterol (substrate specificity) (cholesterol oxidase [1]): act on

Compound: [Mg+2] [Mg^2+]
- inhibition of the enzyme activity (cholesterol oxidase [2]): do not inhibit

Compound: C[C@@H](O)[C@H]1CC[C@H]2[C@@H]3CC[C@H]4C[C@@H](O)CC[C@]4(C)[C@H]3CC[C@]12C [5α-pregnan-3β,20β-diol]
- enzyme acts on the sterol (substrate specificity) (cholesterol oxidase [1]): act on

Compound: [Ca+2] [Ca^2+]
- inhibition of the enzyme activity (cholesterol oxidase [2]): do not inhibit

Compound: [Fe+2] [Fe^2+]
- inhibition of the enzyme activity (cholesterol oxidase [2]): do not inhibit

Compound: CC(=O)[C@H]1CC[C@H]2[C@@H]3CC=C4C[C@@H](O)CC[C@]4(C)[C@H]3CC[C@]12C [pregnenolone]
- enzyme acts on the sterol (substrate specificity) (cholesterol oxidase [1]): act on

Compound: CC[C@H](/C=C/[C@@H](C)[C@H]1CC[C@H]2[C@@H]3CC=C4C[C@@H](O)CC[C@]4(C)[C@H]3CC[C@]12C)C(C)C [stigmasterol]
- enzyme acts on the sterol (substrate specificity) (cholesterol oxidase [1]): act on

Compound: [Mn+2] [Mn^2+]
- inhibition of the enzyme activity (cholesterol oxidase [2]): do not inhibit

Compound: N[C@@H](CCC(=O)N[C@@H](CS)C(=O)NCC(=O)O)C(=O)O [glutathione]
- prevention of inhibition caused by Cu^2+ and Hg^2+ (cholesterol oxidase [2]): almost completely prevented

Compound: CC(C)CCC[C@@H](C)[C@H]1CC[C@H]2[C@@H]3CC[C@H]4C[C@@H](O)CC[C@]4(C)[C@H]3CC[C@]12C [β-cholestanol]
- enzyme acts on the sterol (substrate specificity) (cholesterol oxidase [1]): act on

Compound: Oc1cccc2cccnc12 [β-hydroxyquinoline]
- inhibition of the enzyme activity (cholesterol oxidase [2]): not inhibitory

Compound: CC[C@H](CC[C@@H](C)[C@H]1CC[C@H]2[C@@H]3CC=C4C[C@@H](O)CC[C@]4(C)[C@H]3CC[C@]12C)C(C)C [β-cytosterol]
- enzyme acts on the sterol (substrate specificity) (cholesterol oxidase [1]): act on

Compound: [Ni+2] [Ni^2+]
- inhibition of the enzyme activity (cholesterol oxidase [2]): do not inhibit

Compound: O=C(O)CN(CCN(CC(=O)O)CC(=O)O)CC(=O)O [EDTA]
- inhibition of the enzyme activity (cholesterol oxidase [2]): not inhibitory

Compound: [Co+2] [Co^2+]
- inhibition of the enzyme activity (cholesterol oxidase [2]): do not inhibit

Compound: c1ccc(-c2ccccn2)nc1 [α,α'-dipyridyl]
- inhibition of the enzyme activity (cholesterol oxidase [2]): not inhibitory

Compound: [Ba+2] [Ba^2+]
- inhibition of the enzyme activity (cholesterol oxidase [2]): do not inhibit

Compound: c1cnc2c(c1)ccc1cccnc12 [o-phenanthroline]
- inhibition of the enzyme activity (cholesterol oxidase [2]): not inhibitory

Compound: [Hg+2] [Hg^2+]
- inhibition of the enzyme activity (cholesterol oxidase [2]): markedly inhibited

Compound: [Cu+2] [Cu^2+]
- inhibition of the enzyme activity (cholesterol oxidase [2]): markedly inhibited

Compound: Triton X-100
- inhibition of the enzyme activity by detergent (cholesterol oxidase [2]; 0.01% of Triton X-100): inhibit almost completely

Compound: CC(C)[C@@H](C)/C=C/[C@@H](C)[C@H]1CC[C@H]2C3=CC=C4C[C@@H](O)CC[C@]4(C)[C@H]3CC[C@]12C [ergosterol]
- enzyme acts on the sterol (substrate specificity) (cholesterol oxidase [1]): act on

Compound: CC(C)[C@H](C)CC[C@@H](C)[C@H]1CC[C@H]2[C@@H]3CC=C4C[C@@H](O)CC[C@]4(C)[C@H]3CC[C@]12C [campesterol]
- enzyme acts on the sterol (substrate specificity) (cholesterol oxidase [1]): act on

Compound: C[C@]12CC[C@H](O)CC1=CC[C@@H]1[C@@H]2CC[C@]2(C)C(=O)CC[C@@H]12 [dehydroepiandrosterone]
- enzyme acts on the sterol (substrate specificity) (cholesterol oxidase [1]): act on

— US4425435A, “Cholesterol oxidase and process for producing same” (Takara Shuzo Co., Ltd., priority 1980, dated 1984)
